Data as given in ChEMBL document CHEMBL5729007, “Triaryl compounds for treatment of PD-L1 diseases” (2022).

Target: Programmed cell death 1 ligand 1 (Homo sapiens, UniProt Q9NZQ7)
Experiment: Enzyme-Linked Immunosorbent Assay—ELISA: 96 Well plates were coated with […] of human PD-L1 (obtained from R&D) in PBS overnight at 4° C. The wells were then blocked with 2% BSA in PBS (W/V) with 0.05% TWEEN-20 for 1 hour at 37° C. The plates were washed 3 times with PBS/0.05% TWEEN-20 and the compounds were serial diluted (1:5) in dilution medium and added to the ELISA plates. Human PD-1 and biotin 0.31 μg/mL (ACRO Biosystems) were added and incubated for 1 hour at 37° C. then washed 3 times with PBS/0.05% TWEEN-20. A second block was performed with 2% BSA in PBS (W/V)/0.05% TWEEN-20 for 10 min at 37° C. and the plates were washed 3 times with PBS/0.05% TWEEN-20. Streptavidin-HRP was added for 1 hour at 37° C. then the plates were washed 3 times with PBS/0.05% TWEEN-20. TMB substrate was added and reacted for 20 min at 37° C. A stop solution (2 N aqueous H2SO4) was added. The absorbance was read at 450 nm using a micro-plate spectrophotometer.

Programmed cell death 1 ligand 1, sequence (Q9NZQ7 whole entry): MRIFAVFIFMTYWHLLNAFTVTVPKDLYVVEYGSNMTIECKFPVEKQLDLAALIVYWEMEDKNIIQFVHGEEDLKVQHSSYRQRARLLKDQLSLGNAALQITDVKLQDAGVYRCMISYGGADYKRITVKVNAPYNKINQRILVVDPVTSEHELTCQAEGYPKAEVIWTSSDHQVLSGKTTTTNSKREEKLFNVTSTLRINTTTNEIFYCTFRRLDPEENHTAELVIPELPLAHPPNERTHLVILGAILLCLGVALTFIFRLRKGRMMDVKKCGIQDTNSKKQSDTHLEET

Compound	IC50
COc1cc(-c2cccc(-c3cccc(Nc4nccc5nccnc45)c3C)c2Cl)cc(F)c1CN[C@@H]1CCOC[C@@H]1O	< 10 nM
COc1cc(-c2cccc(-c3cccc(NC(=O)c4cn(C)c(=O)n(C)c4=O)c3Cl)c2Cl)cc(F)c1CN[C@@H]1CCOC[C@@H]1O	< 10 nM
COc1cc(-c2cccc(-c3cccc(NC(=O)c4cn(C)c(=O)n(C)c4=O)c3C)c2C)cc(F)c1CN	< 10 nM
COc1cc(-c2cccc(-c3cccc(NC(=O)c4cnc(C(N)=O)cn4)c3C)c2C)cc(F)c1CN	< 10 nM
COc1cc(-c2cccc(-c3cccc(NC(=O)c4cn(C)c(=O)n(C)c4=O)c3Cl)c2Cl)cc(F)c1CN[C@@H]1CNC(=O)C1	< 10 nM
COc1cc(-c2cccc(-c3cccc(NC(=O)c4cn(C)c(=O)n(C)c4=O)c3C)c2C)cc(F)c1CN(C)CCO	< 10 nM
COc1cc(-c2cccc(-c3cccc(NC(=O)c4ccc(C(N)=O)cn4)c3C)c2C)cc(F)c1CN	< 10 nM
COc1cc(-c2cccc(-c3cccc(NC(=O)c4cncn(C)c4=O)c3C)c2Cl)cc(F)c1CN[C@@H]1CNC(=O)C1	< 10 nM
COc1cc(-c2cccc(-c3cccc(NC(=O)c4ccc(OCC(=O)O)cn4)c3C)c2C)cc(F)c1CN	< 10 nM
COc1cc(-c2cccc(-c3cccc(NC(=O)c4cn(C)c(=O)n(C)c4=O)c3F)c2Cl)cc(F)c1CNCC1CCC(=O)N1 (stereo not given)	< 10 nM
